Measurements from ChEMBL document CHEMBL1144609, “N-Hydroxythiosemicarbazones: synthesis and in vitro antitubercular activity” (Bioorg Med Chem Lett, 2007).
Values after ≈ are worked out from the molar mass of the structure shown.

Key:
[1] = test system: Mycobacterium tuberculosis; experiment: Antimycobacterial activity against Mycobacterium tuberculosis H37Rv by agar dilution method; assay type: functional
[2] = test system: Vero; experiment: Cytotoxicity against Vero cells after 72 hrs by MTT assay; assay type: cell-based; settings: Chlorocebus sabaeus
[3] = Selectivity index, ratio of IC50 for Vero cells to MIC for Mycobacterium tuberculosis H37Rv; assay type: functional

For `C/C(=N\NC(=S)NO)c1ccc(C)cc1`, the MIC [1] was 6.98 µM (≈ 1.56 µg/mL) and the IC50 [2] was > 280 µM.
With `ONC(=S)N/N=C/c1ccc(Cl)cc1` the MIC [1] was 13 µM (≈ 2.99 µg/mL).
`O=C1Nc2ccc(F)cc2/C1=N/NC(=S)NO` showed an MIC [1] of 24.6 µM (≈ 6.25 µg/mL).
For `ONC(=S)N/N=C(\c1ccccc1)c1ccc(Br)cc1`, the MIC [1] was 0.28 µM (≈ 0.0981 µg/mL), the IC50 [2] was > 178 µM and the Selectivity index [3] was >625.
For `O=[N+]([O-])c1ccc(/C=N/NC(=S)NO)cc1`, the MIC [1] was 6.49 µM (≈ 1.56 µg/mL) and the IC50 [2] was > 260 µM.
With `COc1ccc(/C=N/NC(=S)NO)cc1` the MIC [1] was 14.9 µM (≈ 3.37 µg/mL).
Compound `O=C1Nc2ccccc2/C1=N/NC(=S)NO` has an MIC [1] of 64 µM (≈ 15.1 µg/mL).
`COc1cc(/C=N/NC(=S)NO)ccc1O` showed an MIC [1] of 27.2 µM (≈ 6.57 µg/mL).
With `CC[C@@H](CO)NCCN[C@@H](CC)CO` [ETHAMBUTOL] the MIC [1] was 15.3 µM (≈ 3.13 µg/mL) and the IC50 [2] was > 306 µM.
Work on `ONC(=S)N/N=C/c1ccccc1` yielded an MIC [1] of 64 µM (≈ 12.5 µg/mL).
In the case of `C/C(=N\NC(=S)NO)c1ccc(Cl)cc1`, the MIC [1] is reported as 3.2 µM (≈ 0.78 µg/mL) and the IC50 [2] is reported as > 256 µM.
`ONC(=S)N/N=C/c1ccc(O)cc1` showed an MIC [1] of 29.6 µM (≈ 6.25 µg/mL).
For `ONC(=S)N/N=C/c1ccccc1O`, the MIC [1] was 29.6 µM (≈ 6.25 µg/mL).
`Cc1ccc(/C=N/NC(=S)NO)cc1` showed an MIC [1] of 13 µM (≈ 2.71 µg/mL).
For `C/C(=N\NC(=S)NO)c1ccccc1`, the MIC [1] was 14.9 µM (≈ 3.13 µg/mL).
In the case of `C/C(=N\NC(=S)NO)c1ccccc1O`, the MIC [1] is reported as 13.9 µM (≈ 3.13 µg/mL).
`CN(C)c1ccc(/C=N/NC(=S)NO)cc1` gave an MIC [1] of 52.5 µM (≈ 12.5 µg/mL).
For `O=[N+]([O-])c1ccccc1/C=N/NC(=S)NO`, the MIC [1] was 6.49 µM (≈ 1.56 µg/mL) and the IC50 [2] was > 260 µM.
In the case of `CO[C@H]1/C=C/O[C@@]2(C)Oc3c(C)c(O)c4c(O)c(c(/C=N/N5CCN(C)CC5)c(O)c4c3C2=O)NC(=O)/C(C)=C\C=C\[C@H](C)[C@H](O)[C@@H](C)[C@@H](O)[C@@H](C)[C@H](OC(C)=O)[C@@H]1C` [RIFAMPIN], the MIC [1] is reported as 0.24 µM (≈ 0.198 µg/mL) and the IC50 [2] is reported as > 75.9 µM.
In the case of `C/C(=N\NC(=S)NO)c1ccc([N+](=O)[O-])cc1`, the MIC [1] is reported as 0.78 µM (≈ 0.198 µg/mL) and the IC50 [2] is reported as > 246 µM.
In the case of `NNC(=O)c1ccncc1` [ISONIAZID], the MIC [1] is reported as 0.72 µM (≈ 0.0987 µg/mL) and the IC50 [2] is reported as > 456 µM.
